The results in this text go back to US7410986B2, “4-6-diphenyl pyridine derivatives as antiinflammatory agents” (Bayer Aktiengesellschaft, priority 2000, dated 2008).

Counter-ions that a name gives are not always drawn. Like-named read-outs stand apart in the source and are kept apart here.

In one test the target is T1, human IKK-β (Homo sapiens, UniProt O14920).
T1 construct: A cDNA fragment encoding human IKK-β open reading frame was generated by PCR; His; made in house; host or cells: Sf21 insect cells (baculovirus); the GST-IκBα substrate was made in E. coli
T1 sequence (O14920 1-756): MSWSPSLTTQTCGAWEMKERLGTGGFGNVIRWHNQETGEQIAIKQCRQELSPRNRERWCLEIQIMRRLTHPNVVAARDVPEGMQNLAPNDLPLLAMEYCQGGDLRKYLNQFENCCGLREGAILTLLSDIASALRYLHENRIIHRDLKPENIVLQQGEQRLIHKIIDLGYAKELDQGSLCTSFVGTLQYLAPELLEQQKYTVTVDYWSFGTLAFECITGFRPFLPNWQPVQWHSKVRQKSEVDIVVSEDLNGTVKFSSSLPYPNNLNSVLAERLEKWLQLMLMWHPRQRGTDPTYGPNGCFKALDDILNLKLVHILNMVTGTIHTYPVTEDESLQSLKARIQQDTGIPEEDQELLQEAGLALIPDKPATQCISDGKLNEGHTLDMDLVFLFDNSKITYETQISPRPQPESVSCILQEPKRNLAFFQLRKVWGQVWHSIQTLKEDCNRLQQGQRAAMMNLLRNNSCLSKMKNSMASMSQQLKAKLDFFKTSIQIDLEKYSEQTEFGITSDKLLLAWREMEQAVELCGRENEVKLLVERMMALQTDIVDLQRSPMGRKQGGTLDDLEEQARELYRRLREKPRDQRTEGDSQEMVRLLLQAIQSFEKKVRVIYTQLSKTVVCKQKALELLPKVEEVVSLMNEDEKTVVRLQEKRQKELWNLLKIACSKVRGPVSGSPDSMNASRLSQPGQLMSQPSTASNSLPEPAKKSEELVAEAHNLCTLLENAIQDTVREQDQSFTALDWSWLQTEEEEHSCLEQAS
The test is described as follows: IKK-β kinase inhibitory assay. In kind it is biochemical. The conditions noted are these: compounds of about 40 to 90% purity, read-out: In vitro activity grade (invitro, IC50). From the text:
IKK-β Kinase Inhibitory Assay.
• (1) Preparation of IKK-β Kinase Protein. • A cDNA fragment encoding human IKK-β open reading frame was generated by PCR with the use of a pair of primers designed from the published sequence (Woronicz J D et al. (1997) Science 278,866-869). A template was obtained from Quickclone cDNA (Clontech) using Elongase™ Amplification kit (Life Technologies). The DNA fragments generated by PCR were gel-purified and subcloned into pBluescript. The cDNA fragment cloned in pBluescript was inserted into pcDNA3.1/His C KpnI/NotI, and transferred into pVL1393 SmaI/XbaI (Pharmingen) to construct a baculovirus transfer vector. Then the vector, together with the linearized baculovirus (BaculoGold™, Pharmingen) was used to transfect Sf21 cells (Invitrogen, San Diego, Calif.). Generated recombinant baculovirus was cloned and amplified in Sf21 cells, grown in TNM-FH insect cell medium (Life Technologies, Inc.) supplemented with 10% FCS, […] Gentamycin, 0.1% Pluronic F-68 (Life Technologies, Inc.) as suspension culture (200 ml in 1 L Erlenmeyer flask; 27° C.; 130 rpm). Sf21 cells were infected with this amplified virus with a multiplicity of infection of 5 following standard protocols (Crossen R, Gruenwald S (1997) Baculovirus Expression Vector System Instruction Manual, Pharmingen Corporation) and harvested 48 hrs. later. The cells were lysed to obtain the produced chimeric protein of IKK-β kinase fused by histidine (His-tagged IKK-beta). • (2) The Preparation of Purified GST-IκBα Fusion Proteins • An expression vector containing the nucleotide sequence encoding fusion protein of GST with amino acid residues 1 to 54 of IκBα under the control of an IPTG-inducible promoter was constructed. The expression vector was introduced in E. coli and the transformant was cultured and lysed to obtain a GST-IκBα fusion protein. Then the resulting GST-IκBα fusion protein was purified and biotinated for kinase assay. • (3) The Measurement of IKK-β Kinase Activity • The 96-well format kinase assay of IKK-β was performed to test the inhibitory activity of the compounds of the present invention. First, 5 μl of a test compound was put in the presence of 2.5% dimethyl sulfoxide (DMSO) in each well in a U-bottomed 96-well plate (Falcon). For control wells of background (BG) and total phosphorylation (TP), 5 μl of 2.5% DMSO was put. Recombinant IKK-β (final 0.6 μg/ml) and bio-GST-IκBα (1-54) (final 0.2 μM) were diluted in 25 μl of 2×kinase buffer β (40 mM Tris-HCl, pH 7.6, 40 mM MgCl2, 40 mM β-glycerophosphate, 40 mM p-nitrophenyl-phosphate, 2 mM EDTA, 40 mM creatine phosphate, 2 mM DTT, 2 mM Na3VO4, 0.2 mg/ml BSA and 0.8 mM phenylmethylsulfonyl fluoride) and transferred to the 96-well plate. Bio-GST-IκBα (1-54) in 25 μl of 2×kinase buffer β without IKK-β was transferred to BG wells. Then 20 μl of 12.5 μM ATP, 62.5 μCi/ml [γ-^33P] ATP (Amersham Pharmacia Biotech) was added and the resulting mixture was incubated for 2 hrs. at room temperature. The kinase reactions were terminated by the addition of 150 μl of termination buffer (100 mM EDTA, 1 mg/ml BSA, 0.2 mg NaN3). One handred and fifty μl of the sample was transferred to a streptavidin-coated, white MTP (Steffens Biotechniche Analysen GmbH #08114E14. FWD) to capture the biotinylated substrates. After 1 hr. of incubation, non-bound radioactivity was eliminated by washing the wells five times with 300 μl of washing buffer including 0.9% NaCl and 0.1% (w/v) Tween-20 with the use of a MW-96 plate washer (BioTec). The bound radioactivity was determined after the addition of 170 μl MicroScint-PS scintillation cocktail (Packard) using a TopCount scintillation counter. Syk Tyrosine Kinase Inhibitory Assay for Selectivity. • (1) Preparation of Syk Protein • A cDNA fragment encoding human Syk openreading frame was cloned from total RNA of human Burkitt's lymphoma B cell lines, Raji (American Type Culture Collection), with the use of RT-PCR method. […]

Test [1] relates to RANTES production in response to TNF-α from A549 cells. As to the kind of experiment: RANTES production in response to TNF-α from A549 cells. Conditions: 100 ng/ml TNF-α, compounds of about 40 to 90% purity, read-out: Cellular activity grade (A549, IC50). In kind it is cell-based, human.

Turning to `N#Cc1c(-c2cccc(NC(=O)C3CCC(=O)O3)c2)cc(-c2ccccc2O)nc1N` (centres unmarked) [Example 1-1, N-{3-[2-amino-3-cyano-6-(2-hydroxyphenyl)-4-pyridinyl]phenyl}-5-oxotetrahydro-2-furancarboxamide], the IC50 on human IKK-β was 500 to 2000 nM; in test [1] (24 hrs), 1000 to 10000 nM.
Take `N#Cc1c(-c2cccc(NC(=O)NCCN3CCCCC3)c2)cc(-c2ccccc2O)nc1N` [Example 2-09]: the IC50 was in the range of 500 to 2000 nM at human IKK-β and 1000 to 10000 nM in test [1] (Homo sapiens, A549, 24 h).
For `CCN1CCC(N(CC)CCC(=O)Nc2cccc(-c3cc(-c4ccccc4O)nc(N)c3C#N)c2)C1` (centres unmarked) [Example 4-16], the concentration for half-maximal inhibition (IC50) on human IKK-β lay within 500 to 2000 nM; in test [1] (Homo sapiens, A549, 24 h), 1000 to 10000 nM.
The matching figures for `CCCNCC(=O)Nc1cccc(-c2cc(-c3ccccc3O)nc(N)c2C#N)c1` [Example 4-19]: 500 to 2000 nM and 1000 to 10000 nM.
Turning to `N#Cc1c(-c2cccc(NC(=O)CN3CCCC3)c2)cc(-c2ccccc2O)nc1N` [Example 4-23], the IC50 at human IKK-β was 500 to 2000 nM; in test [1] (Homo sapiens, A549, 24 h) it was 1000 to 10000 nM.
On to `CN(C)c1ccc(-c2cc(-c3ccccc3O)nc(N)c2C#N)cc1NC(=O)CCN` [Example 3-07], for which the half-maximal inhibitory concentration (IC50) was less than 500 nM on human IKK-β and 1000 to 10000 nM in test [1] (Homo sapiens, A549, 24 h).
In the same order, the values of `N#Cc1c(-c2ccc(N3CCCC3)c(NC(=O)CCN)c2)cc(-c2ccccc2O)nc1N` [Example 3-04] are less than 500 nM and 1000 to 10000 nM.
Consider `N#Cc1c(-c2cccc(N)c2)cc(-c2ccccc2O)nc1N` [Example 1-07], for which the half-maximal inhibitory concentration (IC50) is 2000 to 10000 nM on human IKK-β and greater than 10000 nM in test [1] (Homo sapiens, A549, 24 h).
Consider `CN(C)c1ccc(-c2cc(-c3ccccc3O)nc(N)c2C#N)cc1NC(=O)CCN1CCCCC1` [Example 3-08], for which the half-inhibitory concentration (IC50) on human IKK-β was less than 500 nM; in test [1] (Homo sapiens, A549, 24 h), 1000 to 10000 nM.
In the same order, the values of `COCCNCC(=O)Nc1cc(-c2cc(-c3ccccc3O)nc(N)c2C#N)ccc1OCC1CC1` [Example 4-32] are 2000 to 10000 nM and 1000 to 10000 nM.
As to `N#Cc1c(-c2cccc(NC(=O)CCN3CCC(C(=O)O)CC3)c2)cc(-c2ccccc2O)nc1N` [Example 4-28], the half-inhibitory concentration (IC50) at human IKK-β is 2000 to 10000 nM; in test [1] (Homo sapiens, A549, 24 h), greater than 10000 nM.
The matching figures for `N#Cc1c(-c2ccc(N3CCCCC3)c(NC(=O)CCN3CCCCC3)c2)cc(-c2ccccc2O)nc1N` [Example 3-10]: 2000 to 10000 nM and 1000 to 10000 nM.
For `N#Cc1c(-c2cccc(NC(=O)C[C@H](N)C(=O)O)c2)cc(-c2ccccc2O)nc1N` [Example 1-09], the IC50 was less than 500 nM at human IKK-β and greater than 10000 nM in test [1] (Homo sapiens, A549, 24 h).
With `CC(=O)Nc1ccc(-c2cc(-c3ccccc3O)nc(N)c2CO)cc1O` [Example 8-04], the IC50 is less than 500 nM at human IKK-β and less than 1000 nM in test [1] (Homo sapiens, A549, 24 h).
With `N#Cc1c(-c2ccc(Cl)c(NC(=O)C(O)CCC(=O)O)c2)cc(-c2ccccc2O)nc1N` (centres unmarked) [Example 1-15], the IC50 at human IKK-β was less than 500 nM; in test [1] (Homo sapiens, A549, 24 h), greater than 10000 nM.
As to `N#Cc1c(-c2cccc(NC(=O)C(O)CCC(=O)O)c2)cc(-c2ccccc2O)nc1N` (centres unmarked) [Example 1-2, Sodium 5-({3-[2-amino-3-cyano-6-(2-hydroxyphenyl)-4-pyridinyl]phenyl}amino)-4-hydroxy-5-oxopentanoate], the 50% inhibitory concentration (IC50) was 500 to 2000 nM at human IKK-β and greater than 10000 nM in test [1] (Homo sapiens, A549, 24 h).
Regarding `N#Cc1c(-c2cccc(NC(=O)[C@@H](N)CC(=O)O)c2)cc(-c2ccccc2O)nc1N` [Example 2-03], the IC50 at human IKK-β is 500 to 2000 nM; in test [1] (Homo sapiens, A549, 24 h), greater than 10000 nM.
Take `CCN1CCN(CCC(=O)Nc2cccc(-c3cc(-c4ccccc4O)nc(N)c3C#N)c2)CC1` [Example 4-12]: the concentration for half-maximal inhibition (IC50) at human IKK-β was in the range of 500 to 2000 nM; in test [1] (Homo sapiens, A549, 24 h) it was 1000 to 10000 nM.
For the compound `CN(C)c1ccc(-c2cc(-c3ccccc3O)nc(N)c2C#N)cc1NC(=O)CNCC1CC1` [Example 4-1, N^1-[5-[2-amino-3-cyano-6-(2-hydroxyphenyl)-4-pyridinyl]-2-(dimethylamino)phenyl]-N^2-(cyclopropylmethyl)glycinamide hydrochloride], the 50% inhibitory concentration (IC50) lay within 500 to 2000 nM on human IKK-β and 1000 to 10000 nM in test [1] (Homo sapiens, A549, 24 h).
For `CN1CCN(CCC(=O)Nc2cccc(-c3cc(-c4ccccc4O)nc(N)c3C#N)c2)CC1` [Example 4-10], the 50% inhibitory concentration (IC50) at human IKK-β fell in the range of 500 to 2000 nM; in test [1] (Homo sapiens, A549, 24 h), 1000 to 10000 nM.
On to `N#Cc1c(-c2cccc(NC(=O)CNC3CCCC3)c2)cc(-c2ccccc2O)nc1N` [Example 4-17], for which the IC50 at human IKK-β was 500 to 2000 nM; in test [1] (Homo sapiens, A549, 24 h), 1000 to 10000 nM.
`N#Cc1c(-c2cccc(NC(=O)CCN3CCCC(C(=O)O)C3)c2)cc(-c2ccccc2O)nc1N` (centres unmarked) [Example 4-29]: the 50% inhibitory concentration (IC50) on human IKK-β was 500 to 2000 nM; in test [1] (Homo sapiens, A549, 24 h), greater than 10000 nM.
For the compound `NC(=O)c1c(-c2cccc(NC(=O)C(O)CCC(=O)O)c2)cc(-c2ccccc2O)nc1N` (centres unmarked) [Example 7-2, Sodium 5-({3-[2-amino-3-(aminocarbonyl)-6-(2-hydroxyphenyl)-4-pyridinyl]-phenyl}amino)-4-hydroxy-5-oxopentanoate], the IC50 is 2000 to 10000 nM at human IKK-β and greater than 10000 nM in test [1] (Homo sapiens, A549, 24 h).
As to `CCN(CC)c1ccc(-c2cc(-c3ccccc3O)nc(N)c2C#N)cc1NC(=O)CCN1CCCCC1` [Example 3-13], the half-maximal inhibitory concentration (IC50) at human IKK-β lay within 2000 to 10000 nM; in test [1] (Homo sapiens, A549, 24 h), 1000 to 10000 nM.
The matching figures for `Cc1ccc(O)c(-c2cc(-c3cccc(NC(=O)CCN4CCCCC4)c3)c(C#N)c(N)n2)c1` [Example 2-07]: 2000 to 10000 nM and greater than 10000 nM.
`N#Cc1c(-c2cccc(NC(=O)CCNCC3CC3)c2)cc(-c2ccccc2O)nc1N` [Example 4-21]: the half-maximal inhibitory concentration (IC50) lay in the range of 500 to 2000 nM at human IKK-β and 1000 to 10000 nM in test [1] (Homo sapiens, A549, 24 h).
Take `CCCCNCC(=O)Nc1cc(-c2cc(-c3ccccc3O)nc(N)c2C#N)ccc1OCC1CC1` [Example 4-33]: the IC50 was greater than 10000 nM at human IKK-β and greater than 10000 nM in test [1] (Homo sapiens, A549, 24 h).
Take `N#Cc1c(-c2cccc(NC(=O)C(O)CCC(=O)O)c2)cc(-c2cc(Cl)ccc2O)nc1N` (centres unmarked) [Example 1-17]: the IC50 at human IKK-β is 2000 to 10000 nM; in test [1] (Homo sapiens, A549, 24 h), greater than 10000 nM.
